# Experimental data as given in patent US20230095520A1, “PHARMACEUTICAL COMPOSITION FOR PREVENTING OR TREATING CANCER COMPRISING AZOLE DERIVATIVES OR PHARMACEUTICALLY ACCEPTABLE SALT THEREOF” (Yungjin Pharm. Co., Ltd., priority 2020, published 2023).
# How the values were obtained:
# [1] = test system: MDA-MB-468 cells; assay: MDA-MB-468 cell proliferation inhibition (MTT); type: cell-based; conditions: for Inhibition rate (%): MDA-MB-468, compound concentration 100 nM; for IC50: MDA-MB-468 proliferation
# Procedure: MDA-MB-468 cells are one of the triple-negative breast cancer (TNBC: negative for the expression of estrogen receptor, progesterone receptor and HER2) cells known as a malignant tumor that is difficult to diagnose at an early stage and has a high metastatic capacity, and these cells are used to test inhibition of proliferation and survival of breast cancer cells.
# MDA-MB-468 cells cultured in a 96-well cell culture plate were treated with the compound of the present invention and cultured for 72 hours. Thereafter, the antiproliferative effect of the compound was assayed by the MTT method using a tetrazolium salt.
# [2] = test system: MV-4-11 cells; assay: MV-4-11 cell proliferation inhibition (CCK-8); type: cell-based; conditions: 72 hours; for Inhibition rate (%): MV-4-11, compound concentration 100 nM; for IC50: MV4-11, MV-4-11 proliferation
# In short: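 The FLT3-mutant AML line MV-4-11 was exposed to compound for 72 h. Antiproliferative effect was read with the tetrazolium-based CCK-8 method.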
# [3] = test system: HepG2 cells; assay: HepG2 cell proliferation inhibition (CCK-8); type: cell-based; conditions: Homo sapiens, HepG2, 72 h
# Procedure: HepG2 cells are human hepatocellular carcinoma cells. In order to evaluate the efficacy of inhibiting the proliferation in HepG2 cells, HepG2 cells were treated with the compounds of the present invention, and the proliferation level was measured as follows.
# The cells were cultured with a culture medium of MEM (Welgene)+10% FBS (Gibco)+1% penicillin/streptomycin (Gibco) at 37° C. in a humidified condition in the presence of 5% CO2. HepG2 cells cultured in a 96-well cell culture plate were treated with the compound of the present invention and cultured for 72 hours.
# [4] = target: T1, Recombinant purified human CDK7 (Homo sapiens, UniProt P50613); assay: CDK7 activity inhibition, ADP-Glo kinase assay; type: biochemical; conditions: ATP 90 μM, MBP substrate, 2 hours 30° C.
# T1 construct: purchased ThermoFisher PV3868
# T1 sequence (P50613 whole entry): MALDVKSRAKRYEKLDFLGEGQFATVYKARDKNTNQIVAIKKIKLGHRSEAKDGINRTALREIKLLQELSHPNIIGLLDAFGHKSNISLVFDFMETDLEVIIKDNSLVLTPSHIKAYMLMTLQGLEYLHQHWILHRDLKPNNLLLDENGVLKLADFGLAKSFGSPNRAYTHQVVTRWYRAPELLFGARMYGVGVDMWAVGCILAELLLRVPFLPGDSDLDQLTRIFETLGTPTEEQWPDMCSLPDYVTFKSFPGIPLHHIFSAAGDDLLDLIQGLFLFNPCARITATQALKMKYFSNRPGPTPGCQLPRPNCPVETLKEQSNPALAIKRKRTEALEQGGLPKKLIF
# T1 sequence (P51946 whole entry partner): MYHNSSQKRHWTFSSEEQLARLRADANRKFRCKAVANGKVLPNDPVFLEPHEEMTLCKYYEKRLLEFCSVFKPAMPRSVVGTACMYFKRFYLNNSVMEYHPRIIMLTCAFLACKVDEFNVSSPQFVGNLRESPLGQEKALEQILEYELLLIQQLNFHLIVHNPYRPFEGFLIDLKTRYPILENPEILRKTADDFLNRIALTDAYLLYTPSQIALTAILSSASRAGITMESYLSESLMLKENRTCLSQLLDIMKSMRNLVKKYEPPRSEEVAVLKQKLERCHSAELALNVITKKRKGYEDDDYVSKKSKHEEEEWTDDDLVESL
# T1 sequence (P51948 whole entry partner): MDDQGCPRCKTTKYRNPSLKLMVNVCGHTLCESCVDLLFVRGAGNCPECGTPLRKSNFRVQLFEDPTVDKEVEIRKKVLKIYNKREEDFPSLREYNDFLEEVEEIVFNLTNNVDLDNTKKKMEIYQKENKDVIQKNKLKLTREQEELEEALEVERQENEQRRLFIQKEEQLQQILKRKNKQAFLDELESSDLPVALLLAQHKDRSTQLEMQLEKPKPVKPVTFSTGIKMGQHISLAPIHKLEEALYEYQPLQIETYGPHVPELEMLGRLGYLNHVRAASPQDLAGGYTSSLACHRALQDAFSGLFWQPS
# Procedure: Recombinant purified human CDK7 (ThermoFisher, PV3868) and ADP Glo Kinase Assay Kit (Promega, V9102) were used. CDK7 was diluted with 1× kinase reaction buffer (40 mM Tris-Cl, pH 7.5, 20 mM MgCl2, 0.1 mg/ml BSA and 50 μM DTT) and added to a 96 well plate (CDK7 final concentration per reaction: 50 ng). It was finally treated with the compound of the present invention to a 1% DMSO aqueous solution, and a substrate cocktail containing ATP (final concentration of 90 μM) and 0.2 μg/μl MBP (myelin basic protein) in a total of 25 μl reaction mass was added to a 96 well plate, thereby initiating the enzymatic reaction. After 2 hours of incubation (30° C.), an equal volume (25 μl per reaction) of ADP Glo was added and incubated at room temperature for 60 minutes (30° C.). Thereafter, kinase detection reagent (50 μl per reaction) was added and incubated at room temperature for 30 minutes (30° C.). The kinase activity was measured by the chemiluminescence method according to the ADP Glo Kinase Assay Kit instruction manual, and the CDK7 inhibitory activity of the compounds of the present invention was calculated.
# [5] = test system: Hep3B; assay: Cancer cell proliferation GI50 (CCK-8); type: cell-based; conditions: liver cancer, 72 hours
# Procedure: (§1) The proliferation effect of SY-1365, which is known to have a proliferation inhibitory effect on various carcinoma cells, and the compound of the present invention on various cancer cells was measured and compared as GI50 (half maximal growth inhibitory concentration, the concentration at which cell proliferation is reduced by half).
# (§2) Various carcinoma cells were cultured at 37° C. in a humidified condition in the presence of 5% CO2. Each cell cultured in a 96-well cell culture plate was treated with the compound of the present invention and cultured for 72 hours.
# (§3) In this example, in order to confirm the proliferation inhibitory effect on various cancer cells, Compound 121 was tested as follows.
# (§4) The cells were cultured with a culture medium shown in Table 9 below at 37° C. in a humidified condition in the presence of 5% CO2. Each cell cultured in a 96-well cell culture plate was treated with the compound of the present invention and cultured for 72 hours.
# [6] = test system: MDA-MB-231; assay: Cancer cell proliferation GI50 (CCK-8); type: cell-based; conditions: MDA-MB-231, breast cancer, 72 hours
# Procedure: as §1, §2, §3, §4
# [7] = test system: MDA-MB-468; assay: Cancer cell proliferation GI50 (CCK-8); type: cell-based; conditions: MDA-MB-468, breast cancer, 72 hours
# Procedure: as §1, §2, §3, §4
# [8] = test system: Huh7; assay: Cancer cell proliferation GI50 (CCK-8); type: cell-based; conditions: Huh7 (Huh-7), liver cancer, 72 hours
# Procedure: as §1, §2, §3, §4
# [9] = test system: HepG2; assay: Cancer cell proliferation GI50 (CCK-8); type: cell-based, human; conditions: HepG2, liver cancer, 72 hours
# Procedure: as §1, §2, §3, §4
structure (smiles),measurement,setting,value
C=CC(=O)Nc1cncc(-c2cccc([C@H](C)C(=O)Nc3ncc(C4CC4)s3)c2)n1 [Compound 16],Inhibition rate (%),[1]; 72 hours,53%
same,Inhibition rate (%),[2],90%
C=CC(=O)Nc1cnc(-c2cccc([C@H](C)C(=O)Nc3ncc(C4CC4)s3)c2)cn1 [Compound 22],Inhibition rate (%),[1]; 72 hours,72%
same,Inhibition rate (%),[2],100%
C=CC(=O)Nc1ncc(-c2cccc([C@H](C)C(=O)Nc3ncc(C4CC4)s3)c2)cn1 [Compound 27],Inhibition rate (%),[1]; 72 hours,74%
same,Inhibition rate (%),[2],100%
C=CC(=O)Nc1ccc(-c2cccc([C@H](C)C(=O)Nc3ncc(C4CC4)s3)c2)nn1 [Compound 28],Inhibition rate (%),[1]; 72 hours,74%
same,Inhibition rate (%),[2],100%
C=CC(=O)Nc1ncc(-c2cccc([C@H](C)C(=O)Nc3ncc(C4CC4)s3)c2)cc1F [Compound 29],Inhibition rate (%),[1]; 72 hours,75%
same,Inhibition rate (%),[2],100%
"C=CC(=O)Nc1cnc(-c2cncc(C(C)C(=O)Nc3ncc(C(F)(F)F)s3)c2)cn1 (stereo not drawn) [Compound 45, N-(5-(5-(1-oxo-1-((5-(trifluoromethyl)thiazol-2-yl)amino)propan-2-yl)pyridin-3-yl)pyrazin-2-yl)acrylamide]",IC50,"[1]; Homo sapiens, MDA-MB-468, 72 h",≤ 14 nM
same,IC50,[1]; 72 hours,9.5 nM
same,IC50,[3],8.3 nM
same,inhibition at 0.1 µM,"[2]; Homo sapiens, MV4-11, MV-4-11, compound concentration 100 nM, read-out: Inhibition rate (%)",100%
same,IC50,[2]; Homo sapiens,8 nM
same,IC50,[4],22.7 nM
"C=CC(=O)Nc1ccc(-c2cncc(C(C)C(=O)Nc3ncc(C(F)(F)F)s3)c2)cn1 (stereo not drawn) [Compound 82, N-(5′-(1-oxo-1-((5-(trifluoromethyl)thiazol-2-yl)amino)propan-2-yl)-[3,3′-bipyridin]-6-yl)acrylamide]",IC50,[2]; Homo sapiens,9.1 nM
same,IC50,[4],36 nM
"CC(C(=O)Nc1ncc(C(F)(F)F)s1)c1cncc(-c2cnc(NC(=O)/C=C/CN3CC4CC3CO4)cn2)c1 (stereo not drawn) [Compound 83, (E)-4-(2-oxa-5-azabicyclo[2.2.1]heptan-5-yl)-N-(5-(5-(1-oxo-1-((5-(trifluoromethyl)thiazol-2-yl)amino)propan-2-yl)pyridin-3-yl)pyrazin-2-yl)but-2-enamide]",IC50,[2]; Homo sapiens,6.9 nM
same,IC50,[4],23 nM
"C[C@H](C(=O)Nc1ncc(C(F)(F)F)s1)c1cccc(-c2cnc(NC(=O)/C=C/CN3CC4CC3CO4)cn2)c1 (stereo partly drawn) [Compound 96, (E)-4-(2-oxa-5-azabicyclo[2.2.1]heptan-5-yl)-N-(5-(3-((S)-1-oxo-1-((5-(trifluoromethyl)thiazol-2-yl)amino)propan-2-yl)phenyl)pyrazin-2-yl)but-2-enamide]",IC50,[2]; Homo sapiens,43.9 nM
same,IC50,[4],7.6 nM
"C[C@H](C(=O)Nc1ncc(C(F)(F)F)s1)c1cccc(-c2cnc(NC(=O)/C=C/CN(C)C)c(F)c2)c1 [Compound 99, (S,E)-4-(dimethylamino)-N-(3-fluoro-5-(3-(1-oxo-1-((5-(trifluoromethyl)thiazol-2-yl)amino)propan-2-yl)phenyl)pyridin-2-yl)but-2-enamide]",IC50,[2]; Homo sapiens,12.7 nM
same,IC50,[4],7.6 nM
"C[C@H](C(=O)Nc1ncc(C(F)(F)F)s1)c1cccc(-c2cnc(NC(=O)/C=C/CN(C)C)c(C#N)c2)c1 [Compound 101, (S,E)-N-(3-cyano-5-(3-(1-oxo-1-((5-(trifluoromethyl)thiazol-2-yl)amino)propan-2-yl)phenyl)pyridin-2-yl)-4-(dimethylamino)but-2-enamide]",IC50,[2]; Homo sapiens,12.3 nM
same,IC50,[4],4.3 nM
"C[C@H](C(=O)Nc1ncc(C2CCC2)s1)c1cccc(-c2cnc(NC(=O)/C=C/CN(C)C)cn2)c1 [Compound 104, (S,E)-N-(5-(3-(1-((5-cyclobutylthiazol-2-yl)amino)-1-oxopropan-2-yl)phenyl)pyrazin-2-yl)-4-(dimethylamino)but-2-enamide]",IC50,[2]; Homo sapiens,30.7 nM
same,IC50,[4],9 nM
"CC(C(=O)Nc1ncc(C(F)(F)F)s1)c1cncc(-c2cnc(NC(=O)/C=C/CN(C)C)c(C#N)c2)c1 (stereo not drawn) [Compound 108, (E)-N-(5-cyano-5′-(1-oxo-1-((5-(trifluoromethyl)thiazol-2-yl)amino)propan-2-yl)-[3,3′-bipyridin]-6-yl)-4-(dimethylamino)but-2-enamide]",IC50,[2]; Homo sapiens,7.1 nM
same,IC50,[4],10.5 nM
"C[C@H](C(=O)Nc1ncc(C(F)(F)F)s1)c1cccc(-c2cnc(NC(=O)/C=C/CN3CC[C@@H](F)C3)cn2)c1 [Compound 115, (E)-4-((R)-3-fluoropyrrolidin-1-yl)-N-(5-(3-((S)-1-oxo-1-((5-(trifluoromethyl)thiazol-2-yl)amino)propan-2-yl)phenyl)pyrazin-2-yl)but-2-enamide]",IC50,[3],12.6 nM
same,IC50,[4],17 nM
"C[C@H](C(=O)Nc1ncc(C(F)(F)F)s1)c1cccc(-c2cnc(NC(=O)/C=C/CN3CCC(O)C3)cn2)c1 (stereo partly drawn) [Compound 119, (E)-4-(3-hydroxypyrrolidin-1-yl)-N-(5-(3-((S)-1-oxo-1-((5-(trifluoromethyl)thiazolyl)amino)propan-2-yl)phenyl)pyrazin-2-yl)but-2-enamide]",IC50,[1]; 72 hours,44 nM
same,IC50,[4],9 nM
"CCc1cnc(NC(=O)[C@@H](C)c2cccc(-c3cnc(NC(=O)/C=C/CN(C)C)c(F)c3)c2)s1 [Compound 130, (S,E)-4-(dimethylamino)-N-(5-(3-(1-((5-ethylthiazol-2-yl)amino)-1-oxopropan-2-yl)phenyl)-3-fluoropyridin-2-yl)but-2-enamide]",IC50,"[1]; Homo sapiens, MDA-MB-468, 72 h",≤ 14 nM
same,IC50,[1]; 72 hours,7 nM
same,IC50,[4],4 nM
"CN(C)C/C=C/C(=O)Nc1ccc(C(=O)N[C@@]2(C)CCC[C@@H](Nc3ncc(Cl)c(-c4c[nH]c5ccccc45)n3)C2)nc1 [SY-1365, reference compound]",GI50,[5],36 nM
same,GI50,[6],70 nM
same,GI50,[7],18 nM
same,GI50,[8],20 nM
same,GI50,[9],19 nM
